Target: T1, Bcl-2 protein (Recombinant Human Bcl-2 Protein) (Homo sapiens, UniProt P10415)
T1 construct: purchased Novus Biologicals NBP2-34889
Assay: AS-MS evaluation of binding of the Example 4 mixture library (1200 compounds/well) to Bcl-2, ASMS ratio (%)
Outline: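 Binding is read as an ASMS ratio from reverse-phase LC/MS peak data. Samples: 1200 compounds at 20 nM each with 20 μM Bcl-2, 1 h at 23 °C in the dark, then P-2 SEC and organic-solvent extraction; references lacked protein, with and without SEC.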

[1] = replicate n = 1, mixture library, value belongs to the MS peak assigned to the compound
[2] = replicate n = 2, mixture library, value belongs to the MS peak assigned to the compound
[3] = AS-MS, Example 4 mixture library, Bcl-2, replicate n = 1
[4] = AS-MS, Example 4 mixture library, Bcl-2, replicate n = 2

T1 sequence (P10415 whole entry): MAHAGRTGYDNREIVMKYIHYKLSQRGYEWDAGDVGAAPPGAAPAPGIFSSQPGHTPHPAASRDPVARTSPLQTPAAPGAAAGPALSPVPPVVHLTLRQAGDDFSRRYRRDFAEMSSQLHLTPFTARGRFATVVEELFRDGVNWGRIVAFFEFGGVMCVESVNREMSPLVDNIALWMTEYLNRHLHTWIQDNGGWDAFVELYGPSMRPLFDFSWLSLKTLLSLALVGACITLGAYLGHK

Structure (SMILES) | ASMS ratio (%) n = 1 [1] [%] | ASMS ratio (%) n = 2 [2] [%] | ASMS ratio (%) n = 1 [3] [%] | ASMS ratio (%) n = 2 [4] [%]
CCOc1cncc(-c2ccc(C(=O)N3CCN(c4ccc(C(=O)NS(=O)(=O)C(C)(C)C)nn4)CC3)c3ccccc23)c1 [Compound B2L014-01, N-tert-Butylsulfonyl-6-[4-[4-(5-ethoxypyridin-3-yl)naphthalene-1-carbonyl]piperazin-1-yl]pyridazine-3-carboxamide] | 0.3 | 0.5 | – | –
CCOc1cncc(-c2cc(CN3CCN(c4ccc(C(=O)NS(=O)(=O)C(C)(C)C)nn4)CC3)cc(OC(F)(F)F)c2)c1 [Compound B2L090-01] | – | – | 0.0 | 0.0
CCOc1cncc(-c2cc(CN3CCN(c4ccc(C(=O)NS(=O)(=O)C(C)(C)C)cc4)CC3)cc(OCC)c2)c1 [Compound B2L056-01] | 0.0 | 0.0 | – | –
CCOc1cccc(-c2cc(CN3CCN(c4ccc(C(=O)NS(=O)(=O)C(C)(C)C)nn4)CC3)cc(OC(C)C)c2)c1 [Compound B2L083-01] | – | – | 0.0 | 0.0
CCOc1cccc(-c2ccccc2CN2CCN(c3ccc(C(=O)NS(=O)(=O)c4ccc(NCCSc5ccccc5)c(C(F)(F)F)c4)cc3)CC2)c1 [Compound B2R045-01, 4-[4-[[2-(3-Ethoxyphenyl)phenyl]methyl]piperazin-1-yl]-N-[4-(2-phenylsulfanylethylamino)-3-(trifluoromethyl)phenyl]sulfonylbenzamide] | – | – | 4.8 | −3.4
CCOc1cncc(C#Cc2ccccc2C(=O)N2CCN(c3ccc(C(=O)NS(=O)(=O)c4ccc(NCCSc5ccccc5)c(C(F)(F)F)c4)cc3)CC2)c1 [Compound B2R030-01, 4-[4-[2-[2-(5-Ethoxypyridin-3-yl)ethynyl]benzoyl]piperazin-1-yl]-N-[4-(2-phenylsulfanylethylamino)-3-(trifluoromethyl)phenyl]sulfonylbenzamide] | – | – | 0.0 | 4.8
CCOc1cncc(C#Cc2cc(C(=O)N3CCN(c4ccc(C(=O)NS(=O)(=O)c5ccc(NCCSc6ccccc6)c(C(F)(F)F)c5)cc4)CC3)cc(C(F)(F)F)c2)c1 [Compound B2R042-01, 4-[4-[3-[2-(5-Ethoxypyridin-3-yl)ethynyl]-5-(trifluoromethyl)benzoyl]piperazin-1-yl]-N-[4-(2-phenylsulfanylethylamino)-3-(trifluoromethyl)phenyl]sulfonylbenzamide] | – | – | 3.4 | 6.0
CCOc1cccc(-c2ccc(CN3CCN(c4ccc(C(=O)NS(=O)(=O)C(C)(C)C)cc4)CC3)cc2F)c1 [Compound B2L051-01, N-tert-Butylsulfonyl-4-[4-[[4-(3-ethoxyphenyl)-3-fluorophenyl]methyl]piperazin-1-yl]benzamide] | 0.0 | 0.0 | – | –
CCOc1cccc(-c2ccccc2CCC(=O)N2CCN(c3ccc(C(=O)NS(=O)(=O)CCC(F)(F)F)nn3)CC2)c1 [Compound B2N011-01, 6-[4-[3-[2-(3-Ethoxyphenyl)phenyl]propanoyl]piperazin-1-yl]-N-(3,3,3-trifluoropropylsulfonyl)pyridazine-3-carboxamide] | – | – | 0.0 | 0.0
CCOc1cncc(-c2csc(C(=O)N3CCN(c4ccc(C(=O)NS(=O)(=O)c5ccc(NCCSc6ccccc6)c(C(F)(F)F)c5)cc4)CC3)c2)c1 [Compound B2R024-01, 4-[4-[4-(5-Ethoxypyridin-3-yl)thiophene-2-carbonyl]piperazin-1-yl]-N-[4-(2-phenylsulfanylethylamino)-3-(trifluoromethyl)phenyl]sulfonylbenzamide] | – | – | 0.0 | −1.2
CCOc1cccc(-c2cc(OC)c(CN3CCN(c4ccc(C(=O)NS(C)(=O)=O)cc4)CC3)c(OC)c2)c1 [Compound B2I059-01, 4-[4-[[4-(3-Ethoxyphenyl)-2,6-dimethoxyphenyl]methyl]piperazin-1-yl]-N-methylsulfonylbenzamide] | 0.0 | 0.0 | – | –
